According to patent publication EP4596574A1, “GLP-1/GCG/GIP TRIPLE-RECEPTOR AGONIST AND USE THEREOF” (Sunshine Lake Pharma Co., Ltd., priority 2022, dated 2024):
“Also recorded” adds a separate entry of the source. Marks after values point to notes of the source that are not given here.

Columns and labels:
[1] = target: T1, GIPR (Homo sapiens, UniProt P48546); test: In vitro cell activity, cAMP production in HEK293 cells expressing GIPR; assay type: cell-based
T1 construct: expressed in transfected cells; host or cells: HEK293 (HEK293-GIPR)
T1 sequence (P48546 22-466): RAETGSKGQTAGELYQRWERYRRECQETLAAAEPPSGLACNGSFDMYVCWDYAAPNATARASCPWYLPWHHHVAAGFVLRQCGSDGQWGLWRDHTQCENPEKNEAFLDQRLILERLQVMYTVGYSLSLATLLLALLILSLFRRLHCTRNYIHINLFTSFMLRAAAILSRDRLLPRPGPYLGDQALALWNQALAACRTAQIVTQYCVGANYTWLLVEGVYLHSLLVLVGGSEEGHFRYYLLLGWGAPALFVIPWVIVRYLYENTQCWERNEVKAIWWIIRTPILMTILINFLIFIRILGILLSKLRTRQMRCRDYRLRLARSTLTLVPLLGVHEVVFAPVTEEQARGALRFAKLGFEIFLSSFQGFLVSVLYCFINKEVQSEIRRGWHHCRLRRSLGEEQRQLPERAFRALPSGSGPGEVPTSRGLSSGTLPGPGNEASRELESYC
In short: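 cAMP accumulation is quantified by homogeneous TR-FRET (cAMP-d2 plus anti-cAMP cryptate) in GIPR-expressing HEK293 cells seeded from a 4×10^5 cells/mL suspension and treated with compound. The signal ratio is plotted against concentration and fitted to a four-parameter curve to give EC50.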

[2] = target: T2, GCGR (Homo sapiens, UniProt P47871); test: In vitro cell activity, cAMP production in HEK293 cells expressing GCGR; assay type: cell-based
T2 construct: expressed in transfected cells; host or cells: HEK293 (HEK293-GCGR)
T2 sequence (P47871 26-477, species assumed): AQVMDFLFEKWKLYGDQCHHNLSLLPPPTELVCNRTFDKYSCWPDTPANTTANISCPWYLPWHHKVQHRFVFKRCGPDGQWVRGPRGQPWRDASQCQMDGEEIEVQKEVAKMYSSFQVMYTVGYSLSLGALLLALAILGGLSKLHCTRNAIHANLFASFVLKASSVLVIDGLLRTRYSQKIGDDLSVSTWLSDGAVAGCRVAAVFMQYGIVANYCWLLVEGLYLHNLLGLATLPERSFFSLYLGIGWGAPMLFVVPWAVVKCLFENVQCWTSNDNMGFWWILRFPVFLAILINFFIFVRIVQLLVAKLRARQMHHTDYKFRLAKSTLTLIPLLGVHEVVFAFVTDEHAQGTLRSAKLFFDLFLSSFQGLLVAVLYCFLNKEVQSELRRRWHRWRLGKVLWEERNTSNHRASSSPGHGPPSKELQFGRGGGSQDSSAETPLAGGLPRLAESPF
In short: (§1)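 Assay format: cells at 4×10^5 cells/mL, cAMP sensed by d2/cryptate FRET pair, dual-wavelength read at 665 and 620 nm. Potency expressed as EC50 from nonlinear fitting.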

[3] = target: T3, GLP-1R (Homo sapiens, UniProt P43220); test: In vitro cell activity, cAMP production in HEK293 cells expressing GLP-1R; assay type: cell-based
T3 construct: expressed in transfected cells; host or cells: HEK293 (HEK293-GLP-1R)
T3 sequence (P43220 24-463, species assumed): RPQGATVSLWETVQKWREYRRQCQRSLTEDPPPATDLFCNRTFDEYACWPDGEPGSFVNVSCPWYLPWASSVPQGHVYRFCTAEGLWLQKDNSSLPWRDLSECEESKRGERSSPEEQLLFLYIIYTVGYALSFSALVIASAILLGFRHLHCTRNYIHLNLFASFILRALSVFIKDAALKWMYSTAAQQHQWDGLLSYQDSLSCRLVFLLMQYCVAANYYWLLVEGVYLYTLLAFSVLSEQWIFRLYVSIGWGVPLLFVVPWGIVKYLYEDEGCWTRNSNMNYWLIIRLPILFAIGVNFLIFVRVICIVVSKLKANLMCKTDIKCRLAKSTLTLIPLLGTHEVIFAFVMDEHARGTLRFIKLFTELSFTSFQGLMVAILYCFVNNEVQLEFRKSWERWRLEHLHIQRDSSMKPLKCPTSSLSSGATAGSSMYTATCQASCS
In short: as §1

[4] = In vivo efficacy evaluation in db/db mouse model (blood glucose); set-up: species or system db/db mice
Protocol: Blood glucose was tested before each administration.

[5] = Long-term repeated administration in diet-induced obese C57BL/6 mice (DIO); assay type: in vivo, C57/BL6 mice
[6] = 10 nmol/kg s.c. once every 3 days, D7
[7] = 10 nmol/kg s.c. once every 3 days, D10
[8] = 10 nmol/kg s.c. once every 3 days, D13
[9] = 10 nmol/kg s.c. once every 3 days, D16
[10] = 10 nmol/kg s.c. once every 3 days, D19
[11] = 10 nmol/kg s.c. once every 3 days, D22
[12] = 10 nmol/kg s.c. once every 3 days, D25
[13] = 10 nmol/kg s.c. once every 3 days, D28
[14] = after 4 weeks of administration
[15] = after 4 weeks of administration, same dose
[16] = long-term administration 10 nmol/kg, 72 h after the last administration
[17] = long-term administration 10 nmol/kg, blood biochemical index

## CC[C@H](C)[C@H](NC(=O)[C@H](Cc1ccccc1)NC(=O)[C@H](C)NC(=O)[C@H](CCCNC(=N)N)NC(=O)[C@H](CCC(N)=O)NC(=O)[C@H](CCCNC(=N)N)NC(=O)[C@H](CCCCNC(=O)COCCOCCNC(=O)CC[C@H](NC(=O)CCCCCCCCCCCCCCCCCCC(=O)O)C(=O)O)NC(=O)[C@H](CCC(=O)O)NC(=O)[C@H](CC(=O)O)NC(=O)[C@H](CC(C)C)NC(=O)[C@H](CC(C)C)NC(=O)[C@@H](NC(=O)[C@H](CO)NC(=O)[C@H](Cc1ccc(O)cc1)NC(=O)[C@H](CC(=O)O)NC(=O)[C@H](CO)NC(=O)[C@@H](NC(=O)[C@](C)(Cc1ccccc1F)NC(=O)[C@@H](NC(=O)CNC(=O)[C@H](CCC(N)=O)NC(=O)C(C)(C)NC(=O)[C@@H](N)Cc1ccc(O)cc1)[C@@H](C)O)[C@@H](C)O)[C@@H](C)CC)C(=O)N[C@@H](CCC(=O)O)C(=O)N[C@@H](Cc1ccc(O)cc1)C(=O)N[C@@H](CC(C)C)C(=O)N[C@@H](CC(C)C)C(=O)N[C@@H](C)C(=O)NCC(=O)NCC(=O)N1CCC[C@H]1C(=O)N[C@@H](CO)C(=O)N[C@@H](CO)C(=O)NCC(=O)N[C@@H](C)C(=O)N1CCC[C@H]1C(=O)N1CCC[C@H]1C(=O)N1CCC[C@H]1C(=O)N[C@@H](CO)C(=O)O [HEC-PT86]
[1]
  EC50: 113 pM
[2]
  EC50: 806 pM
[3]
  EC50: 158 pM
[4]; db/db mice, 10 nmol/kg
  blood glucose after administration: significantly reduce blood glucose
[4]; db/db mice, 10 nmol/kg s.c. once every three days, D0 (before first dose)
  Random blood glucose (mM) D0: 27.3 ± 3.6 mM
[4]; db/db mice, 10 nmol/kg s.c. once every three days, D3
  Random blood glucose (mM) D3: 9.2 ± 5.6 mM
[4]; db/db mice, 10 nmol/kg s.c. once every three days, D4
  Random blood glucose (mM) D4: 16.2 ± 6.5 mM
[4]; db/db mice, 10 nmol/kg s.c. once every three days, D5
  Random blood glucose (mM) D5: 18.8 ± 5.7 mM
[4]; db/db mice, 10 nmol/kg s.c. once every three days, D6
  Random blood glucose (mM) D6: 23.0 ± 3.7 mM
[4]; db/db mice, 10 nmol/kg s.c. once every three days, D7
  Random blood glucose (mM) D7: 21.0 ± 4.4 mM
[4]; db/db mice, 10 nmol/kg s.c. once every three days, D10
  Random blood glucose (mM) D10: 9.1 ± 2.3 mM
[4]; db/db mice, 10 nmol/kg s.c. once every three days, D13
  Random blood glucose (mM) D13: 9.6 ± 3.2 mM
[4]; db/db mice, 10 nmol/kg s.c. once every three days, D16
  Random blood glucose (mM) D16: 8.4 ± 1.7 mM
[4]; db/db mice, 10 nmol/kg s.c. once every three days, D19
  Random blood glucose (mM) D19: 12.0 ± 3.3 mM
[4]; db/db mice, 10 nmol/kg s.c. once every three days, D22
  Random blood glucose (mM) D22: 11.6 ± 3.8 mM
[4]; db/db mice, 10 nmol/kg s.c. once every three days, D25
  Random blood glucose (mM) D25: 13.1±3.3^a mM
[4]; db/db mice, 10 nmol/kg s.c., 6 h
  Random blood glucose (mM) 6 h: 15.4 ± 4.4 mM
[4]; db/db mice, 10 nmol/kg s.c., 24 h
  Random blood glucose (mM) 24 h: 6.5 ± 1.4 mM
[4]; db/db mice, 10 nmol/kg s.c., 48 h
  Random blood glucose (mM) 48 h: 7.9 ± 2.8 mM
[4]; db/db mice, 10 nmol/kg, after administration
  time at which blood glucose levels reached the lowest level: about 24 hours
[4]; db/db mice, long-term repeated administration
  blood glucose lowering after long-term administration compared with LY3298176: better than that of the LY3298176 group; also recorded: better hypoglycemic effect than LY3298176
[4]; db/db mice, same dose 10 nmol/kg
  blood glucose reducing effect after administration compared with LY3298176: slightly better than the positive control LY3298176
[4]; type II diabetes model db/db mice
  blood glucose level after long-term administration: significantly improve the blood glucose level
[5]; [6]
  Cumulative food intake (g/pcs) D7: 8.4 g/pcs
  Weight gain rate (%) D7: -17.8±5.8%
[5]; [7]
  Cumulative food intake (g/pcs) D10: 11.6 g/pcs
  Weight gain rate (%) D10: -23.5±6.6%
[5]; [8]
  Cumulative food intake (g/each) D13: 14.5 g/each
  Weight gain rate (%) D13: -26.1±7.2%
[5]; [9]
  Cumulative food intake (g/each) D16: 19.3 g/each
  Weight gain rate (%) D16: -27.9±7.6%
[5]; [10]
  Cumulative food intake (g/each) D19: 24.5 g/each
  Weight gain rate (%) D19: -29.2±8.1%
[5]; [11]
  Cumulative food intake (g/each) D22: 30.4 g/each
  Weight gain rate (%) D22: -29.3±7.2%
[5]; [12]
  Cumulative food intake (g/each) D25: 36.6 g/each
  Weight gain rate (%) D25: -30.6±7.0%
[5]; [13]
  Cumulative food intake (g/each) D28: 43.4 g/each
  Weight gain rate (%) D28: -31.2±6.4%
[5]; 10 nmol/kg s.c. once every 3 days, D30
  Cumulative food intake (g/each) D30: 47.0^a g/each
[5]; 10 nmol/kg s.c. once every 3 days, D31
  Weight gain rate (%) D31: -30.9±6.4^a %
[5]; 10 nmol/kg s.c., D0
  Cumulative food intake (g/pcs) D0: 2.5 g/pcs
  Weight gain rate (%) D0: 0.0±0.0%
[5]; 10 nmol/kg s.c., D1
  Cumulative food intake (g/pcs) D1: 2.9 g/pcs
  Weight gain rate (%) D1: -6.0±0.8%
[5]; 10 nmol/kg s.c., D2
  Cumulative food intake (g/pcs) D2: 3.5 g/pcs
  Weight gain rate (%) D2: -8.8±1.4%
[5]; 10 nmol/kg s.c., D3
  Cumulative food intake (g/pcs) D3: 4.5 g/pcs
  Weight gain rate (%) D3: -9.9±1.6%
[5]; 10 nmol/kg s.c., D4
  Cumulative food intake (g/pcs) D4: 5.8 g/pcs
  Weight gain rate (%) D4: -10.6±2.9%
[5]; [14]
  liver function and blood lipids of DIO mice: significantly improved the liver function and blood lipids
  weight loss and food intake inhibition effects compared with Semaglutide: superior to the positive drug Semaglutide
[5]; [15]
  food intake inhibition effect compared with LY3298176: comparable to those of the same dose of the positive drug LY3298176
  weight loss effect compared with LY3298176: comparable to those of the same dose of the positive drug LY3298176
[5]; [16]
  Liver index/%: 2.7±0.0^a %
  Liver/g: 0.9±0.1^a g
  Weight/g: 32.3±4.4^a g
[5]; [17]
  ALT (U/L): 27.8±9.4^a U/L
  AST (U/L): 108.6±26.3^a U/L
  CHOL (mmol/L): 3.5±0.7^a mmol/L
  TRIGL (mmol/L): 0.6±0.1^a mmol/L
